Details of series [1]: method as in PMID 35933503. The following applies: general statement; cited from earlier work. An excerpt: The diverse functions of GLP-2 highlight its significance in maintaining intestinal health and physiology. As a naturally occurring gut hormone, GLP-2 not only promotes nutrient absorption by decreasing intestinal motility and permeability, but also plays a pivotal role in stimulating intestinal epithelial cell growth and function. This multifaceted action of GLP-2 is crucial for the maintenance of the intestinal barrier, which is essential for preventing the translocation of harmful bacteria and toxins into the bloodstream.

In a further series the target is T1, human GLP-2R (Homo sapiens, UniProt O95838).
T1 construct: The full-length cDNA of human GLP-2R was synthesized, cloned, and inserted into the pLU.cmv.Zeo vector; expressed in transfected cells
T1 sequence (O95838 1-553): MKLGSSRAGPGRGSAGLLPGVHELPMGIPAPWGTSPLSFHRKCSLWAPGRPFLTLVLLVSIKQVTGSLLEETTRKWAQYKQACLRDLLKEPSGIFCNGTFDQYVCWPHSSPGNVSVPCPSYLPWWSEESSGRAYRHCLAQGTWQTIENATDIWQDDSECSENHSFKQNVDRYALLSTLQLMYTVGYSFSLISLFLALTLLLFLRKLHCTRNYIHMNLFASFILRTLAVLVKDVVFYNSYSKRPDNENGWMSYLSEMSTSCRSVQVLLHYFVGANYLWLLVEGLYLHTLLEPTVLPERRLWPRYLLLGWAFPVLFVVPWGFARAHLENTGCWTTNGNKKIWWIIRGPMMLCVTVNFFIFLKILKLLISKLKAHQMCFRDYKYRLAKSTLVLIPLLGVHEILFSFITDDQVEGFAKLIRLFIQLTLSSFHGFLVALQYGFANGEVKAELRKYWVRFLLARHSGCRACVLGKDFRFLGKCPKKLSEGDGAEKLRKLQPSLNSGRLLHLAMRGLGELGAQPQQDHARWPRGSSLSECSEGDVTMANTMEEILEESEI
The series is described as follows: Cell-based reporter gene assay (RGA), HEK293-GLP-2R-Luc, CRE-luciferase. To be noted: diluted to 2.665 µmol/L and further 7-fold for 10 concentration points; HEK293-GLP-2R-Luc cells. On the procedure: To generate a HEK293 cell line stably expressing CRE-driven luciferase and GLP2R, the CRE-miniP.Luc virus-containing cell supernatants were diluted in DMEM in the presence of 8 µg/mL polybrene before being added to HEK293 cells. To obtain a stable cell pool, the medium was replaced 48 h after incubation, with fresh culture medium containing 3 µg/mL puromycin. After about 3 weeks selection, the cell pool was then further infected with pLU.cmv-GLP2R.Zeo virus and selected with 200 µg/mL Zeocin and 3 µg/mL puromycin. […] The expression of GLP-2R was examined using flow cytometry. After that, the positive clones were routinely maintained in selective medium.
Cell-based RGA has been described previously. Briefly, 50 microliters of HEK293-GLP-2R-Luc cells were seeded into a 96-well white plate at a density of 4 × 10^4 cells/well. The cells were then incubated at 37 °C with 5% CO2 overnight (16 to 24 h). […] After 5 h of incubation, 100 µL of britelite plus reporter Gene Assay reagent were added to each well and mixed thoroughly under subdued light conditions for 5 min. The RLU signal was then determined with a SpectraMax M5e multimode plate reader (Molecular Devices, San Jose, CA, USA).
The RGA was validated as described previously. […] Samples of each potency level were tested by two analysts 8 times in total. […] The response of HEK293-GLP2R-Luc cells to these samples were determined as illustrated in 4.6.
The lower/upper asymptote was determined by the ratio of the top asymptote to the bottom asymptote when RGA best fit the 4PL model. The correlation coefficient (R^2), deviations from parallelism, and the regression in the 4PL model were estimated using SoftMax® Pro 7.1 software (Molecular Devices, San Jose, CA, USA). Specifically, a linear regression with an R^2 value no less than 0.98 was considered to have a very good fit. Additionally, a p-value below 0.01 was regarded as statistically significant. […] All the dose-response curves were plotted using GraphPad Prism® software 8.0.2 (GraphPad, Boston, MA, USA).
(A reporter such as luciferase makes a cellular process visible.)

Ends that are not written are not given here.

These results are taken from publication PMC12073449, “Development of a Mechanism of Action-Reflective Cell-Based Reporter Gene Assay for Measuring Bioactivities of Therapeutic Glucagon-like Peptide-2 Analogues” (Molecules, 2025).

“HGEGTFSSELATILDALAARDFINWLIATKITDKKKKKK-NH2 [glepaglutide]”: in series [1], the bioactivity entry was “enhanced bioactivities” and the half-life entry is on record as “extended half-lives”. Further, on human GLP-2R, the “dose-response curve in RGA” value is given as “induced sigmoid curves similar to those induced by teduglutide”.
